Laboratory results as given in patent US20230278972A1, “SUBSTITUTED HALOALKYL SULFONANILIDE HERBICIDES” (FMC Corporation, priority 2020, published 2023).

What was measured:
Format in all cases: in vivo
[1] = test system: corn (Zea mays); test: Test A postemergence, corn; conditions: Postemergence, 0 to 100 scale (0 no effect, 100 complete control)
How it was run: (§1)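 Directed soil spray at planting gave the preemergence treatment, while foliar application to one- to two-leaf seedlings (2–10 cm) gave the postemergence one; pots held a loam and sand mixture and chemicals were carried in a non-phytotoxic solvent with surfactant.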

[2] = test system: barnyardgrass (Echinochloa crus-galli); test: Test A preemergence, barnyardgrass; conditions: Preemergence; for Plant response rating, Barnyardgrass: 125 g ai/ha, visual injury, 0 to 100 scale (0 no effect, 100 complete control), approx. 10 days; for Barnyardgrass plant response rating: 500 g ai/ha, visual injury on 0 to 100 scale (0 no effect, 100 complete control), approximately 10 days
How it was run: as §1

[3] = test system: Ryegrass, Italian (Italian ryegrass, Lolium multiflorum); test: Test A preemergence, Ryegrass, Italian; conditions: Preemergence; for Plant response rating, Ryegrass, Italian: 125 g ai/ha, visual injury, 0 to 100 scale (0 no effect, 100 complete control), approx. 10 days; for Ryegrass, Italian plant response rating: 500 g ai/ha, visual injury on 0 to 100 scale (0 no effect, 100 complete control), approximately 10 days
How it was run: as §1

[4] = test system: Foxtail, Giant (giant foxtail, Setaria faberi); test: Test A preemergence, Foxtail, Giant; conditions: Preemergence; for Plant response rating, Foxtail, Giant: 125 g ai/ha, visual injury, 0 to 100 scale (0 no effect, 100 complete control), approx. 10 days; for Foxtail, Giant plant response rating: 500 g ai/ha, visual injury on 0 to 100 scale (0 no effect, 100 complete control), approximately 10 days
How it was run: as §1

[5] = test system: wheat (Triticum aestivum); test: Test A postemergence, wheat; conditions: Postemergence, 0 to 100 scale (0 no effect, 100 complete control)
How it was run: (§2)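 Pots: loam soil/sand blend. Pre: directed soil spray at planting. Post: plants 2–10 cm, 1–2 leaf stage. Formulation: non-phytotoxic solvent + surfactant.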

[6] = test system: blackgrass (Alopecurus myosuroides); test: Test A postemergence, blackgrass; conditions: Postemergence, 0 to 100 scale (0 no effect, 100 complete control)
How it was run: as §1

[7] = test system: pigweed (Amaranthus retroflexus); test: Test A preemergence, pigweed; conditions: for Plant response rating, Pigweed: 125 g ai/ha, visual injury, 0 to 100 scale (0 no effect, 100 complete control), approx. 10 days; for Pigweed plant response rating: 500 g ai/ha, visual injury on 0 to 100 scale (0 no effect, 100 complete control), approximately 10 days
How it was run: as §2

[8] = test system: Foxtail, Giant (giant foxtail, Setaria faberi); test: Test A postemergence, Foxtail, Giant; conditions: Postemergence, 0 to 100 scale (0 no effect, 100 complete control)
How it was run: as §1

[9] = test system: ragweed (common ragweed, Ambrosia artemisiifolia); test: Test A postemergence, ragweed; conditions: Postemergence, 0 to 100 scale (0 no effect, 100 complete control)
How it was run: as §1

[10] = test system: galium (catchweed bedstraw, Galium aparine); test: Test A postemergence, galium; conditions: Postemergence, 0 to 100 scale (0 no effect, 100 complete control)
How it was run: as §2

[11] = test system: Ryegrass, Italian (Italian ryegrass, Lolium multiflorum); test: Test A postemergence, Ryegrass, Italian; conditions: Postemergence, 0 to 100 scale (0 no effect, 100 complete control)
How it was run: as §1

[12] = test system: ragweed (common ragweed, Ambrosia artemisiifolia); test: Test A preemergence, ragweed; conditions: Preemergence; for Plant response rating, Ragweed: 125 g ai/ha, visual injury, 0 to 100 scale (0 no effect, 100 complete control), approx. 10 days; for Ragweed plant response rating: 500 g ai/ha, visual injury on 0 to 100 scale (0 no effect, 100 complete control), approximately 10 days
How it was run: as §1

[13] = test system: pigweed (Amaranthus retroflexus); test: Test A postemergence, pigweed; conditions: Postemergence, 0 to 100 scale (0 no effect, 100 complete control)
How it was run: as §1

[14] = test system: kochia (Bassia scoparia); test: Test A preemergence, kochia; conditions: Preemergence; for Plant response rating, Kochia: 125 g ai/ha, visual injury, 0 to 100 scale (0 no effect, 100 complete control), approx. 10 days; for Kochia plant response rating: 500 g ai/ha, visual injury on 0 to 100 scale (0 no effect, 100 complete control), approximately 10 days
How it was run: as §1

[15] = test system: kochia (Bassia scoparia); test: Test A postemergence, kochia; conditions: Postemergence, 0 to 100 scale (0 no effect, 100 complete control)
How it was run: as §1

[16] = test system: barnyardgrass (Echinochloa crus-galli); test: Test A postemergence, barnyardgrass; conditions: Postemergence, 0 to 100 scale (0 no effect, 100 complete control)
How it was run: as §2

[17] = 500 g ai/ha, visual injury approx. 10 days

Row | Structure (SMILES) | Plant response rating, Corn ([1]; 125 g ai/ha) | Plant response rating, Corn [1, 17] | Plant response rating, Barnyardgrass [2] | Barnyardgrass plant response rating [2] | Plant response rating, Ryegrass, Italian [3] | Ryegrass, Italian plant response rating [3] | Plant response rating, Foxtail, Giant [4] | Foxtail, Giant plant response rating [4] | Plant response rating, Wheat ([5]; 125 g ai/ha) | Plant response rating, Wheat [5, 17] | Plant response rating, Blackgrass ([6]; 125 g ai/ha) | Plant response rating, Blackgrass [6, 17] | Plant response rating, Pigweed [7] | Pigweed plant response rating [7] | Plant response rating, Foxtail, Giant ([8]; 125 g ai/ha) | Plant response rating, Foxtail, Giant [8, 17] | Plant response rating, Ragweed ([9]; 125 g ai/ha) | Plant response rating, Ragweed [9, 17] | Plant response rating, Galium ([10]; 125 g ai/ha) | Plant response rating, Galium [10, 17] | further results
1 | Cc1cc(C)c(N(S(=O)(=O)C(F)(F)F)S(=O)(=O)C(F)(F)F)cc1C(=O)N1CCC(Cl)CC1 [Compound 243] | 0 | 0 | 80 | 90 | 90 | 100 | 100 | 100 | 0 | 30 | 0 | 10 | 100 | 100 | 0 | 40 | 30 | 90 | 70 | 90 | Plant response rating, Ryegrass, Italian ([11]; 125 g ai/ha): 0; Plant response rating, Ryegrass, Italian [11, 17]: 30; Plant response rating, Ragweed [12]: 70; Ragweed plant response rating [12]: 80; Plant response rating, Pigweed ([13]; 125 g ai/ha): 90; Plant response rating, Pigweed [13, 17]: 100; Plant response rating, Kochia [14]: 20; Kochia plant response rating [14]: 80; Plant response rating, Kochia ([15]; 125 g ai/ha): 10; Plant response rating, Kochia [15, 17]: 70; Plant response rating, Barnyardgrass ([16]; 125 g ai/ha): 50; Plant response rating, Barnyardgrass [16, 17]: 70
2 | COC1CCN(C(=O)c2cc(NS(=O)(=O)C(F)(F)F)c(Cl)cc2C)CC1 [Compound 246] | 20 | 40 | 40 | 100 | 70 | 100 | 90 | 100 | 20 | 60 | 20 | 0 | 90 | 100 | 60 | 90 | 90 | 90 | 90 | 90 | Plant response rating, Ryegrass, Italian ([11]; 125 g ai/ha): 0; Plant response rating, Ryegrass, Italian [11, 17]: 10; Plant response rating, Ragweed [12]: 80; Ragweed plant response rating [12]: 90; Plant response rating, Pigweed ([13]; 125 g ai/ha): 90; Plant response rating, Pigweed [13, 17]: 90; Plant response rating, Kochia [14]: 40; Kochia plant response rating [14]: 90; Plant response rating, Kochia ([15]; 125 g ai/ha): 20; Plant response rating, Kochia [15, 17]: 80; Plant response rating, Barnyardgrass ([16]; 125 g ai/ha): 70; Plant response rating, Barnyardgrass [16, 17]: 90
3 | Cc1cc(Cl)c(C(=O)N2CCOCC2)cc1NS(=O)(=O)C(F)(F)F [Compound 248] | 0 | 0 | 80 | 90 | 70 | 90 | 40 | 80 | 40 | 60 | 0 | 60 | 90 | 90 | 20 | 50 | 90 | 90 | 70 | 90 | Plant response rating, Ryegrass, Italian ([11]; 125 g ai/ha): 0; Plant response rating, Ryegrass, Italian [11, 17]: 70; Plant response rating, Ragweed [12]: 80; Ragweed plant response rating [12]: 90; Plant response rating, Pigweed ([13]; 125 g ai/ha): 80; Plant response rating, Pigweed [13, 17]: 80; Plant response rating, Kochia [14]: 90; Kochia plant response rating [14]: 90; Plant response rating, Kochia ([15]; 125 g ai/ha): 60; Plant response rating, Kochia [15, 17]: 90; Plant response rating, Barnyardgrass ([16]; 125 g ai/ha): 60; Plant response rating, Barnyardgrass [16, 17]: 90
